In ChEMBL document CHEMBL1133335, “Serendipitous synthesis of novel dehydro- and dechloro-pseudomycin B (PSB) derivatives” (Bioorg Med Chem Lett, 2000):
In brackets after ≈: the same amount, converted by molar mass. Where a SMILES comes first, the peptide text is derived from it. Bridges are numbered along the chain shown (N, C = ends). [ ]: non-standard residue; d: D form. The star is where a group is joined. Tetradecanoyl(3R-OH) = CCCCCCCCCCC[C@@H](O)CC(=O)*; Asp(3S-OH) = N[C@H](C(=O)O)[C@H](O)C(=O)O; Thr(4-Cl) = N[C@H](C(=O)O)[C@H](O)CCl; aThr = C[C@H](O)[C@H](N)C(=O)O; dDab = NCC[C@@H](N)C(=O)O; Dab = NCC[C@H](N)C(=O)O; Dhb = C/C=C(\N)C(=O)O

What was measured:
Aspergillus fumigatus = experiment: In vitro minimum inhibitory concentration against Aspergillus fumigatus; type: functional
Mus musculus [1] = experiment: Compound (at 20 mg/kg) was tested to induce tail vein irritation in mice; Negative; type: ADME, organism-based; design: dose 20 mg/kg; details: in vivo
Candida albicans = experiment: In vitro minimum inhibitory concentration against Candida albicans; type: functional
Cryptococcus neoformans = experiment: In vitro minimum inhibitory concentration against Cryptococcus neoformans; type: functional
Mus musculus [2] = experiment: Compound (at 20 mg/kg) was tested to induce tail vein irritation in mice; Positive; type: ADME, organism-based; design: dose 20 mg/kg; details: in vivo

| SMILES | MIC (Aspergillus fumigatus) [µg/mL] | Tail vein toxicity (Mus musculus [1]) | MIC (Candida albicans) [µg/mL] | MIC (Cryptococcus neoformans) [µg/mL] | Tail vein toxicity (Mus musculus [2]) |
| --- | --- | --- | --- | --- | --- |
| C/C=C1\NC(=O)[C@H]([C@@H](C)O)NC(=O)[C@@H](CCN)NC(=O)[C@H](CCCCN)N2C(=O)C[C@@H](NC(=O)[C@H](CCN)NC(=O)C(NC(=O)C[C@@H](O)CCCCCCCCCCC)COC(=O)[C@@H]([C@@H](O)CCl)NC(=O)[C@H]([C@H](O)C(=O)O)NC1=O)C2=O (stereo not given in full) | > 20 | Negative | > 20 | 10 (≈ 8.41 µM) |  |
| C/C=C1\NC(=O)[C@H]([C@H](C)O)NC(=O)[C@H](CCN)NC(=O)[C@H](CCCCN)NC(=O)[C@H]2CC(=O)O[C@H](C(=O)O)[C@H](NC1=O)C(=O)N[C@@H]([C@H](O)CCl)C(=O)OC[C@H](NC(=O)C[C@H](O)CCCCCCCCCCC)C(=O)N[C@H](CCN)C(=O)N2 | > 20 | Negative | 5 (≈ 4.2 µM) | 0.625 (≈ 0.525 µM) |  |
| C/C=C1\NC(=O)[C@H]([C@H](C)O)NC(=O)[C@H](CCN)NC(=O)[C@H](CCCCN)N2C(=O)C[C@H](NC(=O)[C@@H](CCN)NC(=O)[C@@H](NC(=O)C[C@H](O)CCCCCCCCCCC)COC(=O)/C(=C\CO)NC(=O)[C@H]([C@H](O)C(=O)O)NC1=O)C2=O | > 20 |  | > 20 | 20 (≈ 17.3 µM) |  |
| C/C=C1\NC(=O)[C@H]([C@H](C)O)NC(=O)[C@H](CCN)NC(=O)[C@H](CCCCN)NC(=O)[C@H](CC(=O)O)NC(=O)[C@@H](CCN)NC(=O)[C@@H](NC(=O)C[C@H](O)CCCCCCCCCCC)COC(=O)[C@H]([C@H](O)CCl)NC(=O)[C@H]([C@H](O)C(=O)O)NC1=O [PSEUDOMYCIN B] ({Tetradecanoyl(3R-OH)}-S[dDab]DK[Dab][aThr][Dhb][Asp(3S-OH)][Thr(4-Cl)]; ester 1-C) | 20 (≈ 16.6 µM) |  | 0.312 (≈ 0.258 µM) | < 0.01 | POSITIVE |
